In patent publication US20140163050A1, “Use of 1H-quinazoline-2,4-diones” (priority 2011, published 2014):
In brackets after ≈: the same amount, converted by molar mass. Several values for one entry are separate records, joined by “and”; a condition that tells them apart may be missing. Equal entries are not always repeated. Entries after “also recorded” stand apart in the source; their conditions may differ. Where two headings read alike, the source gives them in different places.

Experiments:
mouse = assay: Oral bioavailability: in vivo orally active (audiogenic mouse test and/or MES test)
Protocol: The oral bioavailability was tested using the audiogenic mouse test (Audiogenic seizures, R. L. Collins; Chapter 14, pages: 347-372. In: Experimental Models of Epilepsy; By: Pupura, Penry, Tower, Woodbury, Walter, Raven Press, New York, 1972. Standard Book Number: 0-911216-26-X) and/or the MES test.

patients with PSE = assay: PK-PD relationship, Emax model for SPR; type: in vivo, human; settings: for EC50: Homo sapiens, read-out: mean (SD) EC50; for EC50 / mean (SD) Emax on the logit scale: mean across the 13 patients; for EC50 (C-7 concentration at 50% of the maximum reduction in SPR) / Emax (maximum reduction in SPR on the logit scale): estimate for each patient (15, 50 or 100 mg)
Protocol: The mean SPR per eye condition and plasma PK concentrations of C-7 50, 100, and 15 mg dose groups is shown in FIG. 3, FIG. 4 and FIG. 5, respectively.
A PK-PD model was developed sequentially for the SPR data. Firstly a pharmacokinetic model was fitted using nonlinear mixed effects methodology in NONMEM version VI to describe the 13 patients with both PK and PD data. A 3 compartment disposition model with first order absorption and absorption lag time was selected to describe the pharmacokinetic time profile for each patient. The between patient variability was described by exponential random effects on each pharmacokinetic parameter, with all parameters assumed to be independent between individuals. The residual error model combined the additive and proportional error terms. The estimated pharmacokinetic parameters for each patient were used to generate each patient's PK profile as an input to the pharmacodynamic model.
For the Pharmacodynamic response, SPR, an Emax model was fitted on the logit transformed scale:
where Base is the baseline SPR on the logit scale, Emax is the maximum reduction in SPR on the logit scale, EC50 is the concentration at which the 50% of the maximum reduction is obtained and C is C-7 concentration. For each patient, the PD parameters for the three eye conditions, eyes closure, eyes closed and eyes open, were estimated separately but with a common additive residual variance on the logit scale. The PD parameter estimates were highly variable across the 13 patients, with the estimation having trouble identifying Emax and EC50 (see Table 6 below).

[1] = C-7 plasma pharmacokinetics after single oral administration; type: in vivo, human
Protocol: The C-7 PK parameters were determined in plasma using non-compartmental methods using WinNonlin Pro (Version 5.2), as detailed in Table 3.
Biofluid concentrations were expressed in mass per volume units (ng/mL). All C-7 and AEDs concentrations below LLOQ were reported as zero in the concentration data listings. Concentrations below LLOQ were treated as zero in summary statistics of concentration data as well as for calculation of C-7 PK parameters. A geometric mean was not reported whenever at least one concentration was below the LLOQ (i.e. zero). Missing data were labeled as such and no imputation methods were used.
Terminal elimination rate constant (lambda_z) was calculated as the slope of the linear regression of the terminal phase of the logarithmic concentration-time profile for each individual dataset available. A minimum of three time points was used for determining lambda_z. Regression was performed without weighting, and a minimum value of 0.75 for Rsq_adjusted was necessary for acceptance.
The different areas under the concentration-time curve were calculated using the linear trapezoidal summation (both ascending and descending phase).
Descriptive statistics of pharmacokinetic parameters included mean, SD, and CV, minimum and maximum. The geometric mean was identified when presented. A range of values were presented for selected variables. Since Tmax is generally evaluated by a nonparametric method, median values and ranges were provided.
The patients received the study medication in the morning between 8:00 h and 9:00 h, at least 30 minutes after a light breakfast had been completed.

[2] = PK of concomitant AEDs on co-administration of C-7; type: in vivo, human; settings: C-7 on Day 2; AED PK profiles Day 1 vs Days 2 and 3
Protocol: Similar AEDs concentration-time profiles were observed on Days 1, 2 and 3 for each patient. Two of the patients in Cohort I were also enrolled in Cohort II. Their lamotrigine PK profiles were similar in the 2 treatment periods. These observations confirm stable pre-existing treatment for all the patients.
AED concentrations were listed and summarized; analysis of level of exposure of AED(s) taken by the patient was performed on an ad-hoc basis as it depended on specifics of the AED.

[3] = Cohort I, C-7 50 mg, individual patients
[4] = Cohort II, C-7 100 mg, individual patients
[5] = Cohort III, C-7 15 mg, individual patients
[6] = patients with PSE (after light breakfast) vs healthy volunteer study (fasted)

EC50 (patients with PSE; eyes closed): 3.75 µg/mL (≈ 9.93 µM) | EC50 (patients with PSE; eyes closures): 2.25 µg/mL (≈ 5.97 µM) | EC50 (patients with PSE; eyes open): 2.96 µg/mL (≈ 7.85 µM) | AUC0-24 h [1, 4]: 17924 ng·h/mL and 13877 ng·h/mL | Cmax [1, 4]: 3470 ng/mL and 2950 ng/mL | Tmax [1, 4]: 2.88 h and 2.00 h | AUC0-24 h [1, 5]: 2906 ng·h/mL and 3878 ng·h/mL | Cmax [1, 5]: 634 ng/mL and 701 ng/mL | Tmax [1, 5]: 4.00 h and 1.97 h | AUC(0-t) ([1]; human, plasma, oral, 15 mg, Cohort III, C-7 15 mg, individual patients, read-out: AUC0-24 h): 4270 ng·h/mL | Cmax ([1]; human, plasma, oral, 15 mg, Cohort III, C-7 15 mg, individual patients, read-out: Cmax): 581 ng/mL | Cmax ([1]; human, plasma, oral, 50 mg, Cohort I, C-7 50 mg, individual patients, read-out: Cmax): 1530 ng/mL | Tmax ([1]; human, plasma, oral, 50 mg, Cohort I, C-7 50 mg, individual patients, read-out: Tmax): 3 h | AUC(0-t) ([1]; human, plasma, oral, 100 mg, Cohort II, C-7 100 mg, individual patients, read-out: AUC0-24 h): 21300 ng·h/mL | Cmax ([1]; human, plasma, oral, 100 mg, Cohort II, C-7 100 mg, individual patients, read-out: Cmax): 3700 ng/mL | Tmax ([1]; human, plasma, oral, 100 mg, Cohort II, C-7 100 mg, individual patients, read-out: Tmax): 3 h | AUC(0-t) ([1]; human, plasma, po, 15 mg, plasma, single oral 15 mg, Cohort III, n = 3, geometric mean [% CV geo mean], read-out: AUC0-6 hr): 2130 ng·h/mL | AUC(0-t) ([1]; human, plasma, po, 15 mg, plasma, single oral 15 mg, Cohort III, n = 3, geometric mean [% CV geo mean], read-out: AUC0-24 hr): 3640 ng·h/mL | AUC(0-t) ([1]; human, plasma, po, 15 mg, plasma, single oral 15 mg, Cohort III, n = 3, geometric mean [% CV geo mean], read-out: AUClast): 3660 ng·h/mL | Cmax ([1]; human, plasma, po, 15 mg, plasma, single oral 15 mg, Cohort III, n = 3, geometric mean [% CV geo mean], read-out: Cmax): 637 ng/mL | Tmax ([1]; human, plasma, po, 15 mg, plasma, single oral 15 mg, Cohort III, n = 3, median (min-max), read-out: Tmax): 2.98 h | AUC(0-t) ([1]; human, plasma, po, 50 mg, plasma, single oral 50 mg, Cohort I, n = 6, geometric mean [% CV geo mean], read-out: AUC0-6 hr): 6790 ng·h/mL | AUC(0-t) ([1]; human, plasma, po, 50 mg, plasma, single oral 50 mg, Cohort I, n = 6, geometric mean [% CV geo mean], read-out: AUC0-24 hr): 10600 ng·h/mL | AUC(0-t) ([1]; human, plasma, po, 50 mg, plasma, single oral 50 mg, Cohort I, n = 6, geometric mean [% CV geo mean], read-out: AUClast): 10700 ng·h/mL | Cmax ([1]; human, plasma, po, 50 mg, plasma, single oral 50 mg, Cohort I, n = 6, geometric mean [% CV geo mean], read-out: Cmax): 1990 ng/mL | Tmax ([1]; human, plasma, po, 50 mg, plasma, single oral 50 mg, Cohort I, n = 6, median (min-max), read-out: Tmax): 2.96 h | AUC(0-t) ([1]; human, plasma, po, 100 mg, plasma, single oral 100 mg, Cohort II, n = 4, geometric mean [% CV geo mean], read-out: AUC0-6 hr): 10200 ng·h/mL | AUC(0-t) ([1]; human, plasma, po, 100 mg, plasma, single oral 100 mg, Cohort II, n = 4, geometric mean [% CV geo mean], read-out: AUC0-24 hr): 16900 ng·h/mL | AUC(0-t) ([1]; human, plasma, po, 100 mg, plasma, single oral 100 mg, Cohort II, n = 4, geometric mean [% CV geo mean], read-out: AUClast): 17000 ng·h/mL | Cmax ([1]; human, plasma, po, 100 mg, plasma, single oral 100 mg, Cohort II, n = 4, geometric mean [% CV geo mean], read-out: Cmax): 2980 ng/mL | Tmax ([1]; human, plasma, po, 100 mg, plasma, single oral 100 mg, Cohort II, n = 4, median (min-max), read-out: Tmax): 2.94 h | mean AUClast in patients higher than in healthy male subjects [1, 6]: 10-40% | mean Cmax in patients higher than in healthy male subjects [1, 6]: 10-20% | Tlag ([1]; plasma, single oral 15 mg, Cohort III, n = 3, median (min-max)): 0.00 (0.00-0.00) hr | Tlag ([1]; plasma, single oral 50 mg, Cohort I, n = 6, median (min-max)): 0.00 (0.00-0.00) hr | Tlag ([1]; plasma, single oral 100 mg, Cohort II, n = 4, median (min-max)): 0.00 (0.00-0.00) hr | earliest time C-7 measurable in plasma ([1]; single 15, 50 or 100 mg dose): 0.25 h post-dose | time of peak plasma concentration (median) ([1]; single 15, 50 or 100 mg dose): around 3 h post-dose | time of peak plasma concentration, maximum in individual patients ([1]; single 15, 50 or 100 mg dose): 4 h | time of peak plasma concentration, minimum in individual patients ([1]; single 15, 50 or 100 mg dose): approximately 2 h
SMILES: CC(C)c1cc2[nH]c(=O)n(NS(C)(=O)=O)c(=O)c2cc1-c1ccnn1C [Compound C-7, N-[7-Isopropyl-6-(2-methyl-2H-pyrazol-3-yl)-2,4-dioxo-1,4-dihydro-2H-quinazolin-3-yl]-methanesulfonamide]
In vivo orally active (mouse): Yes | EC50 (C-7 concentration at 50% of the maximum reduction in SPR) (patients with PSE; eyes closed): 0.219 µg/mL and 0.005 µg/mL and 1.17 µg/mL and 0.31 µg/mL and 2.04 µg/mL and 0.229 µg/mL and 9.9 µg/mL and 2.08 µg/mL and 9.2 µg/mL | Emax (maximum reduction in SPR on the logit scale) (patients with PSE; eyes closed): 0.963 and 2.54 and 1.79 and 2.47 and 6.99 and 0.58 and 0.05 and 30.9 and 49.5 (3×) and 0.487 | mean (SD) Emax on the logit scale (patients with PSE; eyes closed): 16.3 (21.7) | EC50 (C-7 concentration at 50% of the maximum reduction in SPR) (patients with PSE; eyes closure): 1.69 µg/mL and 9.9 µg/mL and 0.32 µg/mL and 0.788 µg/mL and 1.27 µg/mL and 0.005 µg/mL and 0.01 µg/mL and 0.814 µg/mL and 1.41 µg/mL and 3.08 µg/mL and 0.0833 µg/mL | Emax (maximum reduction in SPR on the logit scale) (patients with PSE; eyes closure): 2.38 and 41.5 and 0.571 and 49.5 (2×) and 3.25 and 2.39 and 0.05 (2×) and 9.23 and 1.31 and 7.67 and 0.495 | mean (SD) Emax on the logit scale (patients with PSE; eyes closures): 12.9 (19.6) | EC50 (C-7 concentration at 50% of the maximum reduction in SPR) (patients with PSE; eyes open): 1.47 µg/mL and 9.9 µg/mL and 0.629 µg/mL and 0.131 µg/mL and 0.005 µg/mL and 0.137 µg/mL and 1.61 µg/mL and 1.88 µg/mL | Emax (maximum reduction in SPR on the logit scale) (patients with PSE; eyes open): 1.14 and 40.8 and 1.03 and 49.5 (4×) and 14.5 and 1.29 and 0.05 (2×) and 2.66 | mean (SD) Emax on the logit scale (patients with PSE; eyes open): 21.6 (23.5) | AUC0-24 h [1, 3]: 9838 ng·h/mL and 12564 ng·h/mL and 14162 ng·h/mL and 7043 ng·h/mL | Cmax [1, 3]: 1910 ng/mL and 2140 ng/mL and 2800 ng/mL and 1410 ng/mL | Tmax [1, 3]: 2.00 h and 2.92 h and 3.98 h and 3.87 h | effect of co-administration of C-7 on the AED PK [2]: did not seem to affect the AED PK; also recorded: did not seem to affect the PK of selected AEDs; also recorded: did not appear to affect the AED PK
